Legend:
[1] = biological target: 3',5'-cyclic-AMP phosphodiesterase 4D (Homo sapiens) (UniProt Q08499); assay: PDE4D2 Cerep selectivity data (BI); conditions: Compound concentration 10.0 uM
[2] = biological target: Cannabinoid receptor 2 (Homo sapiens) (UniProt P34972); assay: CB2/PERIPH/H Cerep selectivity data (BI); conditions: Compound concentration 10.0 uM
[3] = biological target: Histamine H2 receptor (Homo sapiens) (UniProt P25021); assay: H2/APT/HS Cerep selectivity data (BI); conditions: filed as antagonist, Compound concentration 10.0 uM
[4] = biological target: T1, Alpha-2A adrenergic receptor (Homo sapiens) (UniProt P08913); assay: ALPHA2A/HU Cerep selectivity data (BI); conditions: Compound concentration 10.0 uM
T1 sequence (whole entry): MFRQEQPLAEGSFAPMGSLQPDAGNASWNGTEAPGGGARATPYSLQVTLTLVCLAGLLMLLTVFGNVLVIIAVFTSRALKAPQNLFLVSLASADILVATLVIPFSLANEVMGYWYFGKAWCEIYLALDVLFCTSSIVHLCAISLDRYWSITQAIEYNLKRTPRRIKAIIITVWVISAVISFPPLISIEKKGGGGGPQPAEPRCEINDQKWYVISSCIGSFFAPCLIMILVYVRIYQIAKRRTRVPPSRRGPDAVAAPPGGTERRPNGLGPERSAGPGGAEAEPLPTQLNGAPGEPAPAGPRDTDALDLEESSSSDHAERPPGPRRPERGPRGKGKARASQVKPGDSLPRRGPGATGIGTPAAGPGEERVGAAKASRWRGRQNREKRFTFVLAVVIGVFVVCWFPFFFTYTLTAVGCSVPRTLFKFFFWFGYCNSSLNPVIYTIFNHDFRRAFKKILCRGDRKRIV

[5] = biological target: Mu-type opioid receptor (Homo sapiens) (UniProt P35372); assay: MU/H Cerep selectivity data (BI); conditions: Compound concentration 10.0 uM
[6] = biological target: Sodium-dependent noradrenaline transporter (Homo sapiens) (UniProt P23975); assay: NEUP/H Cerep selectivity data (BI); conditions: Compound concentration 10.0 uM
[7] = biological target: 5-hydroxytryptamine receptor 2A (Homo sapiens, UniProt P28223); assay: GPCRScan assay: inhibition of 5-HT2A; design: radioligand conc. used [nm] 1.2 – 2.4, parental cells HEKT
[8] = biological target: 5-hydroxytryptamine receptor 2B (Homo sapiens) (UniProt P41595); assay: 5HT2B/H AG Cerep selectivity data (BI); conditions: filed as agonist, Compound concentration 10.0 uM
[9] = biological target: T2, Alpha-1A adrenergic receptor (Homo sapiens) (UniProt P35348); assay: ALPHA1AH_ANTAG Cerep selectivity data (BI); conditions: filed as antagonist, Compound concentration 10.0 uM
T2 sequence (whole entry): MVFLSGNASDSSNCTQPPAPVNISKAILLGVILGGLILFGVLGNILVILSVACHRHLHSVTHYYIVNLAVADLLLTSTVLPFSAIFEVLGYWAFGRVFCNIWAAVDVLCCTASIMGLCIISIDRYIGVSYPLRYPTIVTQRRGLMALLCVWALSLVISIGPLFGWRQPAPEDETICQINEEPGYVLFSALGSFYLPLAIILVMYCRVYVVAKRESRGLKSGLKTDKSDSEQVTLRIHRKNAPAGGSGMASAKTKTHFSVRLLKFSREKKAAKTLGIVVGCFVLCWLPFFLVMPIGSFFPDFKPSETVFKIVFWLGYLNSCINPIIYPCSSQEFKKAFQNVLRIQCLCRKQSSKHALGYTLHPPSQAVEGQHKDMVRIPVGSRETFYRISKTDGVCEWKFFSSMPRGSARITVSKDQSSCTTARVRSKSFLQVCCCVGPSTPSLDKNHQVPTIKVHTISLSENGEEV

[10] = biological target: 5-hydroxytryptamine receptor 1B (Rattus norvegicus) (UniProt P28564); assay: 5HT1B/R Cerep selectivity data (BI); conditions: Compound concentration 10.0 uM
[11] = biological target: Muscarinic acetylcholine receptor M3 (Homo sapiens) (UniProt P20309); assay: M3/H Cerep selectivity data (BI); conditions: Compound concentration 10.0 uM
[12] = biological target: Endothelin-1 receptor (Homo sapiens) (UniProt P25101); assay: ETA/H Cerep selectivity data (BI); conditions: Compound concentration 10.0 uM
[13] = biological target: Beta-1 adrenergic receptor (Homo sapiens) (UniProt P08588); assay: BETA1/HUM Cerep selectivity data (BI); conditions: Compound concentration 10.0 uM
[14] = biological target: Sodium-dependent dopamine transporter (Homo sapiens) (UniProt Q01959); conditions: Compound concentration 10.0 uM
[15] = biological target: Kappa-type opioid receptor (Rattus norvegicus) (UniProt P34975); assay: KAPPA/R Cerep selectivity data (BI); conditions: Compound concentration 10.0 uM
[16] = biological target: D(1A) dopamine receptor (Homo sapiens) (UniProt P21728); assay: D1/H Cerep selectivity data (BI); conditions: filed as antagonist, Compound concentration 10.0 uM
[17] = biological target: T3, Muscarinic acetylcholine receptor M2 (Homo sapiens) (UniProt P08172); assay: M2/H Cerep selectivity data (BI); conditions: filed as antagonist, Compound concentration 10.0 uM
T3 sequence (whole entry): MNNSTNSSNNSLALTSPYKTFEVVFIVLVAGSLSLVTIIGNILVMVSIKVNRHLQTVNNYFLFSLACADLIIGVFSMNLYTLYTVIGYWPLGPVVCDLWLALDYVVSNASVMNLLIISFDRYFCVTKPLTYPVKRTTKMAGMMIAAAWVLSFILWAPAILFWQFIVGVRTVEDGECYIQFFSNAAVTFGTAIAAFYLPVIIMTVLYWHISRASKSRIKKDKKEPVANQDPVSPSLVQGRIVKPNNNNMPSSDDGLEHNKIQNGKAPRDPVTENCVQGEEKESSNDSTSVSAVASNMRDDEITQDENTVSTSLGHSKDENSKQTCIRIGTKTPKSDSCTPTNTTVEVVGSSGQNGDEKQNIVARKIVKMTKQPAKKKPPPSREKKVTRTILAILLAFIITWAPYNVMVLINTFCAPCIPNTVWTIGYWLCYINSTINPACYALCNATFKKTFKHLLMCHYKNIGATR

[18] = biological target: Histamine H1 receptor (Homo sapiens) (UniProt P35367); assay: H1/PYRIL/HS Cerep selectivity data (BI); conditions: Compound concentration 10.0 uM
[19] = biological target: Beta-2 adrenergic receptor (Homo sapiens) (UniProt P07550); conditions: Compound concentration 10.0 uM
Chain of Beta-2 adrenergic receptor (Homo sapiens) (P07550 whole entry, looked up): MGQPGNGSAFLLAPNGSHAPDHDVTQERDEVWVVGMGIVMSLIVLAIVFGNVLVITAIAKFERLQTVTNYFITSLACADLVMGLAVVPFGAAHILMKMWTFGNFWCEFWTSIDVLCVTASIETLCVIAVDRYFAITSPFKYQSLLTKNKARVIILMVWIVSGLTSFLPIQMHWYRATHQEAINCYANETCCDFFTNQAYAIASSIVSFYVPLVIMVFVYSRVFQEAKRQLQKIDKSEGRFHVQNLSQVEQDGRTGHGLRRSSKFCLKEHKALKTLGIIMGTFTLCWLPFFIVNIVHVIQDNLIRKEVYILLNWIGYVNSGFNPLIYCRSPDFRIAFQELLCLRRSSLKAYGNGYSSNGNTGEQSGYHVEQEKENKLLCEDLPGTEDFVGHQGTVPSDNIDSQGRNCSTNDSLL

Chain of Sodium-dependent noradrenaline transporter (Homo sapiens) (P23975 whole entry): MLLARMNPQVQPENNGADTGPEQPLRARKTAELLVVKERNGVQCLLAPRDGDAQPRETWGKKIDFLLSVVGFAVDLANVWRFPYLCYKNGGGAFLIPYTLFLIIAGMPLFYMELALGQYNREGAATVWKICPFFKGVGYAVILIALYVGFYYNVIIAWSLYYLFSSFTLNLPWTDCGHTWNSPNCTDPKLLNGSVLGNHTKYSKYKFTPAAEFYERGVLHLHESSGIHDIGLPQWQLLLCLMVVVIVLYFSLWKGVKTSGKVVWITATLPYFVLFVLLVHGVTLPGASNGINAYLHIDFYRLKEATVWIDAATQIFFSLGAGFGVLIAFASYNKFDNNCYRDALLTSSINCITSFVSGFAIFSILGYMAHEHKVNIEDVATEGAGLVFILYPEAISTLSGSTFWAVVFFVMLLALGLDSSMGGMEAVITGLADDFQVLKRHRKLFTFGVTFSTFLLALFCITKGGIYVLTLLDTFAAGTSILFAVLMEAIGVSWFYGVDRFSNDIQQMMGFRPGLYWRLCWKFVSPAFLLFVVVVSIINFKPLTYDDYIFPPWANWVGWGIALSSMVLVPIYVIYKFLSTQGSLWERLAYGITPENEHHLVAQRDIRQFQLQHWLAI
Chain of D(1A) dopamine receptor (Homo sapiens) (P21728 whole entry): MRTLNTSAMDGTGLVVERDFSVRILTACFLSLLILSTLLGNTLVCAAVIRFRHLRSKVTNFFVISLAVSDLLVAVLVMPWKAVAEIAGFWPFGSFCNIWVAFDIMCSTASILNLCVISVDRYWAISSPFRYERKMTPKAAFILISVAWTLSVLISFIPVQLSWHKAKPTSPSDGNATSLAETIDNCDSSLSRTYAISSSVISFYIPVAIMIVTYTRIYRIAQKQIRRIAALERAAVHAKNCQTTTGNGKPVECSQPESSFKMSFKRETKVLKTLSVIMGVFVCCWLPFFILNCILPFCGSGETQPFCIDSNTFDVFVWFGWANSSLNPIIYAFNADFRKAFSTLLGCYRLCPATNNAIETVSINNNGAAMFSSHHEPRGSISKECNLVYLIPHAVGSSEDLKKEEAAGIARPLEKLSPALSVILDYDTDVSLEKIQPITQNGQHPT
Chain of 5-hydroxytryptamine receptor 2A (P28223 whole entry): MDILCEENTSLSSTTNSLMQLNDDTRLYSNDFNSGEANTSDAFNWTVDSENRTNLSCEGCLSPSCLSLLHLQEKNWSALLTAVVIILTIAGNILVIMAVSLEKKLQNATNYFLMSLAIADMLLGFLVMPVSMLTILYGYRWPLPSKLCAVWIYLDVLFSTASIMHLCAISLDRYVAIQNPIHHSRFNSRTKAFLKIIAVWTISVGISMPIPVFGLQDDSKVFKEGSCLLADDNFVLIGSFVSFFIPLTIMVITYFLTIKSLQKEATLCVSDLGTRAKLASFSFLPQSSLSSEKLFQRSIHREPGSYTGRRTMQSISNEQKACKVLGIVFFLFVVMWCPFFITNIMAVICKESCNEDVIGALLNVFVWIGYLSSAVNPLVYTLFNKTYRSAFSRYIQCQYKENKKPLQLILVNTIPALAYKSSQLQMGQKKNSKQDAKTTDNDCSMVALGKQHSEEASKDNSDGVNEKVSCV
Chain of Muscarinic acetylcholine receptor M3 (Homo sapiens) (P20309 whole entry, looked up): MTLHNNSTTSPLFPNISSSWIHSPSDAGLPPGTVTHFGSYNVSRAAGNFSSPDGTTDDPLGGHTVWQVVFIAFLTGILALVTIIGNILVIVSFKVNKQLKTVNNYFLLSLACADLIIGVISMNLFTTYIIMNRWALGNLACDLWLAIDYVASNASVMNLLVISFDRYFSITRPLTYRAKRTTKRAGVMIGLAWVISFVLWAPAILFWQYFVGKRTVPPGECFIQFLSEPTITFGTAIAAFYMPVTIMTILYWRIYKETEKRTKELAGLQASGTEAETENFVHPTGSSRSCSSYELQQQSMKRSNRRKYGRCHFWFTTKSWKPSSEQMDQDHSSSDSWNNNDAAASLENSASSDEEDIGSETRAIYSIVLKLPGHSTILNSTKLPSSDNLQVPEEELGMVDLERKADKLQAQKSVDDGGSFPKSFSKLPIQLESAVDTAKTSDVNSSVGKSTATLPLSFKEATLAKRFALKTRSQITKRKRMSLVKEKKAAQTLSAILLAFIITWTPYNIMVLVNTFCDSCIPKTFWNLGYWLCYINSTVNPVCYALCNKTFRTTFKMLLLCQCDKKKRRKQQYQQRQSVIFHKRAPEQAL
Chain of Cannabinoid receptor 2 (Homo sapiens) (P34972 whole entry): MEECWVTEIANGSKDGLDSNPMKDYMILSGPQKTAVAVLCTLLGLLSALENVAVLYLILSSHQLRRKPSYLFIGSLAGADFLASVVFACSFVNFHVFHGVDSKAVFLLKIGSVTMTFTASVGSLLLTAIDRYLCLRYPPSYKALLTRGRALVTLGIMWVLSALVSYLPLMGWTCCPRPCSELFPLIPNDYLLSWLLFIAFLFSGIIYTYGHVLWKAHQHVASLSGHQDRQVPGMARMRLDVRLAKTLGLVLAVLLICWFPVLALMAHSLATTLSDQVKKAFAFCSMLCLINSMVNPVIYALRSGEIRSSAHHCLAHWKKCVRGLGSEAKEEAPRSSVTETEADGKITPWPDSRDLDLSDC
Chain of Endothelin-1 receptor (Homo sapiens) (P25101 whole entry): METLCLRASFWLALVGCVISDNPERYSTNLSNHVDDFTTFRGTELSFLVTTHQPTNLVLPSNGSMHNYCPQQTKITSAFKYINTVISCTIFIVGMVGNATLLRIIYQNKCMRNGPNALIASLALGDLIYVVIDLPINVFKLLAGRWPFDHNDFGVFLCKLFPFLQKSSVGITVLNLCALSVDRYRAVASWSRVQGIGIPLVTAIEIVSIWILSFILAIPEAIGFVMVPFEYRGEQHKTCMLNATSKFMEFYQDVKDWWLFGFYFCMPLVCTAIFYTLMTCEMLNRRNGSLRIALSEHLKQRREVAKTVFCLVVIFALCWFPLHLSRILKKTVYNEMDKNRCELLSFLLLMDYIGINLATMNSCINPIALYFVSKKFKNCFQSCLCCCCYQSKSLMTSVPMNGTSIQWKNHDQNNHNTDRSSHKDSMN
Chain of Mu-type opioid receptor (Homo sapiens) (P35372 whole entry): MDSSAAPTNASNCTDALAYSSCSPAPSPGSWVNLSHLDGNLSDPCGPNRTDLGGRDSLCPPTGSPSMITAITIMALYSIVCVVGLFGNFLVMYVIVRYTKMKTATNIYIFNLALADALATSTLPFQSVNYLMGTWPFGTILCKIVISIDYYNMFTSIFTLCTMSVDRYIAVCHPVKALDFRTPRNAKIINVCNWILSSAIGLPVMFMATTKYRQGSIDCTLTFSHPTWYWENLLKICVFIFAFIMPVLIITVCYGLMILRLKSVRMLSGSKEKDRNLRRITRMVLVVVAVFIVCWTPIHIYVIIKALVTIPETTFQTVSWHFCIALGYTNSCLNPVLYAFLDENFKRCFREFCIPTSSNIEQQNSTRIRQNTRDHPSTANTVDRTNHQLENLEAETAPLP
Chain of Kappa-type opioid receptor (Rattus norvegicus) (P34975 whole entry): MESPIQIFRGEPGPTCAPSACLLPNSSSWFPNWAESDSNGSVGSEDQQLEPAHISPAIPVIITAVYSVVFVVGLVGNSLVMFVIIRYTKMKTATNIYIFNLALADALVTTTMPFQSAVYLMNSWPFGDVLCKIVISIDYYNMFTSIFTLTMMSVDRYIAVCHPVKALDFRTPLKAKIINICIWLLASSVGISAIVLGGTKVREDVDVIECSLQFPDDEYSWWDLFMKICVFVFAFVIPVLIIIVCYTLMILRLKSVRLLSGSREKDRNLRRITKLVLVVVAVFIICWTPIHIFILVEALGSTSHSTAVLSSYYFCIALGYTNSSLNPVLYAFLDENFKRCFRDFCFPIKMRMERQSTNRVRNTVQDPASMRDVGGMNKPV
Chain of Sodium-dependent dopamine transporter (Homo sapiens) (Q01959 whole entry): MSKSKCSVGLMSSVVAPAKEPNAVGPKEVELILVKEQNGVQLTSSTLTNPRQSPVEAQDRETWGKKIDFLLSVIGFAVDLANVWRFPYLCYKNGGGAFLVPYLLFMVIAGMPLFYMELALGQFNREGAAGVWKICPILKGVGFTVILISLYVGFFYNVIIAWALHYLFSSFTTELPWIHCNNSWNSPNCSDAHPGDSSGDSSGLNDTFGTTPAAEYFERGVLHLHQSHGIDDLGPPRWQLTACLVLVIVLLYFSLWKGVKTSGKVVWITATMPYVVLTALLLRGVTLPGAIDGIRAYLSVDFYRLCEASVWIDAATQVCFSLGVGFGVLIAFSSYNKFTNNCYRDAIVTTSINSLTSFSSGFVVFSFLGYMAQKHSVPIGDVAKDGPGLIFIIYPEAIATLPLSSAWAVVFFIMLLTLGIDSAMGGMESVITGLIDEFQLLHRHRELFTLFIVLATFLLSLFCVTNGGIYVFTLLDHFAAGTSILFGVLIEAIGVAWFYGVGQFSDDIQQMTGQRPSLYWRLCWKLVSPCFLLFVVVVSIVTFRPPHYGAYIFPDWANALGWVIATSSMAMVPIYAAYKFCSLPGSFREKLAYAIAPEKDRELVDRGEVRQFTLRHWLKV

SMILES | residual activity [1] [%] | residual activity [2] [%] | residual activity [3] [%] | residual activity [4] [%] | residual activity [5] [%] | residual activity [6] [%] | Ki [7] [µM] | residual activity [8] [%] | residual activity [9] [%] | residual activity [10] [%] | residual activity [11] [%] | residual activity [12] [%] | residual activity [13] [%] | inhibition [14] [%] | residual activity [15] [%] | residual activity [16] [%] | residual activity [17] [%] | residual activity [18] [%] | inhibition [19] [%]
O=C(NC[C@@H]1[C@H]2CN(C(=O)OCc3cc(C(F)(F)F)cc(C(F)(F)F)c3)C[C@@H]12)c1ccc2[nH]nnc2c1 [BI 2545] | 98 | 77 | 110 | 86 | 67 | 39 | 8.68 | 54 | 87 | 92 | 100 | 92 | 98 | -2.65 | 68 | 92 | 100 | 101 | –
Cc1nccc(COC(=O)N2C[C@@H]3[C@@H](CNC(=O)c4ccc5[nH]nnc5c4)[C@@H]3C2)n1 [BI 3017] | – | – | – | – | – | – | – | – | – | – | – | – | – | – | – | – | – | – | -9.93

Reference: ChEMBL document CHEMBL4507275, “Data for DCP probe BI-2545” (2021)
